# Key:
# [1] = target: soluble human BACE1 catalytic domain (Homo sapiens (Human), UniProt P56817); experiment: BACE1 HTRF FRET Assay; type: biochemical; settings: Ki calculated from IC50 using the Cheng-Prusoff equation; QSY7-APPswe-Eu substrate, pH 5.0; read-out: BACE-1 Ki
# Source text: Na^+-Acetate pH 5.0; 1% Brij-35; Glycerol; Dimethyl Sulfoxide (DMSO); Recombinant human soluble BACE1 catalytic domain (>95% pure); APP Swedish mutant peptide substrate (QSY7-APP^swe-Eu): QSY7-EISEVNLDAEFC-Europium-amide.
# A homogeneous time-resolved FRET assay can be used to determine IC50 values for inhibitors of the soluble human BACE1 catalytic domain. This assay monitors the increase of 620 nm fluorescence that resulted from BACE1 cleavage of an APPswedish APP^swe mutant peptide FRET substrate (QSY7-EISEVNLDAEFC-Europium-amide). This substrate contains an N-terminal QSY7 moiety that serves as a quencher of the C-terminal Europium fluorophore (620 nm Em). In the absence of enzyme activity, 620 nm fluorescence is low in the assay and increased linearly over 3 hours in the presence of uninhibited BACE1 enzyme. Inhibition of BACE1 cleavage of the QSY7-APP^swe-Eu substrate by inhibitors is manifested as a suppression of 620 nm fluorescence.
# Varying concentrations of inhibitors at 3× the final desired concentration in a volume of 10 ul are preincubated with purified human BACE1 catalytic domain (3 nM in 10 μl) for 30 minutes at 30° C. in reaction buffer containing 20 mM Na-Acetate pH 5.0, 10% glycerol, 0.1% Brij-35 and 7.5% DSMO. Reactions are initiated by addition of 10 μl of 600 nM QSY7-APP^swe-Eu substrate (200 nM final) to give a final reaction volume of 30 μl in a 384 well Nunc HTRF plate. The reactions are incubated at 30° C. for 1.5 hours. The 620 nm fluorescence is then read on a Rubystar HTRF plate reader (BMG Labtechnologies) using a 50 millisecond delay followed by a 400 millisecond acquisition time window. Inhibitor IC50 values are derived from non-linear regression analysis of concentration response curves. Ki values are then calculated from IC50 values using the Cheng-Prusoff equation using a previously determined […] of 8 μM for the QSY7-APP^swe-Eu substrate at BACE1.
# [2] = target: purified human autoBACE-2 (Homo sapiens (Human), UniProt Q9Y5Z0); experiment: BACE-2 Assay (BACE-HTRF assay); type: biochemical; settings: Ki calculated from IC50 using the Cheng-Prusoff equation; QSY7-EISEVNLDAEFC-Eu-amide substrate, pH 5.0
# Chain of purified human autoBACE-2 (Q9Y5Z0 63-473 limits assumed): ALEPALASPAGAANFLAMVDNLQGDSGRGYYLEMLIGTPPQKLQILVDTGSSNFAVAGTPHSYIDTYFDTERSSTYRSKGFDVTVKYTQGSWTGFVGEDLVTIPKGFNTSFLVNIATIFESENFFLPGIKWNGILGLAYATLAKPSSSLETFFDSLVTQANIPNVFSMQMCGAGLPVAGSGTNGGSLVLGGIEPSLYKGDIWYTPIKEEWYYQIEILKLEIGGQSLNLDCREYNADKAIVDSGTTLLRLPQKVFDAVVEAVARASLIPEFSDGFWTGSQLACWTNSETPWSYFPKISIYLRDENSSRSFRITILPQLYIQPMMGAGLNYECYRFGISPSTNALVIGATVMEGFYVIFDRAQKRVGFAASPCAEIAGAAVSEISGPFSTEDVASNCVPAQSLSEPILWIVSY
# Protocol: Inhibitor IC50s at purified human autoBACE-2 are determined in a time-resolved endpoint proteolysis assay that measures hydrolysis of the QSY7-[…]-Eu-amide FRET peptide substrate (BACE-HTRF assay). […] DMSO is present at 5% final concentration in the assay. Following laser excitation of sample wells at 320 nm, the fluorescence signal at 620 nm is collected for 400 ms following a 50 μs delay on a RUBYstar HTRF plate reader (BMG Labtechnologies). Raw RFU data is normalized to maximum (1.0 nM BACE/DMSO) and minimum (no enzyme/DMSO) RFU values. […] The Ki values are calculated from the IC50 using the Cheng-Prusoff equation.
# Chain of soluble human BACE1 catalytic domain (P56817 75-416): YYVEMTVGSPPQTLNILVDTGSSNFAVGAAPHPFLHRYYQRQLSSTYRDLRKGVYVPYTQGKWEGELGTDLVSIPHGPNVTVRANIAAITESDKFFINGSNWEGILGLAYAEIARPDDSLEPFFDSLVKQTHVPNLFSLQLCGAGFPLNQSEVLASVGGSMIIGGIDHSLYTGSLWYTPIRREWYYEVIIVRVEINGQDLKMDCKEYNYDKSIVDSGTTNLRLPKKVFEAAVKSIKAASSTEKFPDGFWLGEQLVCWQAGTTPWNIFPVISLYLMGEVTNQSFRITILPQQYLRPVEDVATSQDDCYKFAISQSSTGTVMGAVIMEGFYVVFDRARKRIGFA
SMILES,Ki [1] [nM],Ki [2] [nM]
COc1cnc(C(=O)Nc2ccc3c(c2)[C@@]2(C)NC(=N)N(C)S(=O)(=O)[C@H]2CCC3)cn1 [Example 34],17,52
"C#CCOc1ccc(C(=O)Nc2ccc3c(c2)[C@@]2(C)NC(=N)N(C)S(=O)(=O)[C@@H]2CCO3)nc1 [Example 6, N-((4aR,11bR)-2-imino-3,11b-dimethyl-4,4-dioxido-2,3,4a,5,6,11b-hexahydro-1H-benzo[2,3]oxepino[4,5-e][1,2,4]thiadiazin-10-yl)-5-(prop-2-yn-1-yloxy)picolinamide]",25,995
"Cc1ccc(C(=O)Nc2ccc3c(c2)[C@@]2(C)NC(=N)N(C)S(=O)(=O)[C@H]2CCO3)nc1 [Example 17, N-((4aS,11bR)-2-imino-3,11b-dimethyl-4,4-dioxido-2,3,4a,5,6,11b-hexahydro-1H-benzo[2,3]oxepino[4,5-e][1,2,4]thiadiazin-10-yl)-5-methylpicolinamide]",18,16
"CCCNc1ccc2c(c1)[C@@]1(C)NC(=N)N(C)S(=O)(=O)[C@H]1CCO2 [Example 49, (4aS,11bR)-2-imino-3,11b-dimethyl-10-(propylamino)-2,3,4a,5,6,11b-hexahydro-1H-benzo[2,3]oxepino[4,5-e][1,2,4]thiadiazine 4,4-dioxide]",918,1980
"CN1C(=N)N[C@]2(C)c3cc(NC(=O)c4ccc(F)cn4)ccc3CCC[C@@H]2S1(=O)=O [Example 28, 5-fluoro-N-((4aS,11bR)-2-imino-3,11b-dimethyl-4,4-dioxido-1,2,3,4a,5,6,7,11b-octahydrobenzo[6,7]cyclohepta[1,2-e][1,2,4]thiadiazin-10-yl)picolinamide]",18,7
"CN1C(=N)N[C@]2(C)c3cc(NC(=O)c4ncc(C(F)(F)F)cc4Cl)ccc3OCC[C@@H]2S1(=O)=O [Example 20, 3-chloro-N-((4aS,11bR)-2-imino-3,11b-dimethyl-4,4-dioxido-2,3,4a,5,6,11b-hexahydro-1H-benzo[2,3]oxepino[4,5-e][1,2,4]thiadiazin-10-yl)-5-(trifluoromethyl)picolinamide]",5,36
"COCC(=O)Nc1ccc2c(c1)[C@@]1(C)NC(=N)N(C)S(=O)(=O)[C@@H]1CCO2 [Example 4, N-((4aR,11bR)-2-imino-3,11b-dimethyl-4,4-dioxido-2,3,4a,5,6,11b-hexahydro-1H-benzo[2,3]oxepino[4,5-e][1,2,4]thiadiazin-10-yl)-2-methoxyacetamide]",1360,890
"COc1cnc2c(Nc3ccc4c(c3)[C@@]3(C)NC(=N)N(C)S(=O)(=O)[C@H]3CCO4)ccnc2c1 [Example 42, (4aS,11bR)-2-imino-10-((7-methoxy-1,5-naphthyridin-4-yl)amino)-3,11b-dimethyl-2,3,4a,5,6,11b-hexahydro-1H-benzo[2,3]oxepino[4,5-e][1,2,4]-thiadiazine 4,4-dioxide]",412,1790
CN1C(=N)N[C@]2(C)c3cc(NC(=O)c4ccc(C#N)cn4)ccc3CCC[C@@H]2S1(=O)=O [Example 36],4,25
"CN1C(=N)N[C@]2(C)c3cc(NC4CCCC4)ccc3OCC[C@@H]2S1(=O)=O [Example 47, (4aS,11bR)-10-(cyclopentylamino)-2-imino-3,11b-dimethyl-2,3,4a,5,6,11b-hexahydro-1H-benzo[2,3]oxepino[4,5-e][1,2,4]thiadiazine 4,4-dioxide]",348,716
"CN1C(=N)N[C@]2(C)c3cc(NC(=O)c4ccc(OC(F)F)cn4)ccc3CCC[C@@H]2S1(=O)=O [Example 22, 5-(difluoromethoxy)-N-((4aS,11bR)-2-imino-3,11b-dimethyl-4,4-dioxido-1,2,3,4a,5,6,7,11b-octahydrobenzo[6,7]cyclohepta[1,2-e][1,2,4]thiadiazin-10-yl)picolinamide]",10,90
"Cc1nc(C(=O)Nc2ccc3c(c2)[C@@]2(C)NC(=N)N(C)S(=O)(=O)[C@@H]2CCO3)c(C)o1 [Example 3, N-((4aR,11bR)-2-imino-3,11b-dimethyl-4,4-dioxido-2,3,4a,5,6,11b-hexahydro-1H-benzo[2,3]oxepino[4,5-e][1,2,4]thiadiazin-10-yl)-2,5-dimethyloxazole-4-carboxamide]",265,384
"CN1C(=N)N[C@]2(C)c3cc(NC(=O)c4ccc(C(F)(F)F)cn4)ccc3OCC[C@@H]2S1(=O)=O [Example 18, N-((4aS,11bR)-2-imino-3,11b-dimethyl-4,4-thoxido-2,3,4a,5,6,11b-hexahydro-1H-benzo[2,3]oxepino[4,5-e][1,2,4]thiadiazin-10-yl)-5-(trifluoromethyl)picolinamide]",11,79
"CN1C(=N)N[C@]2(C)c3cc(NC(=O)c4ccc(Cl)cn4)ccc3OCC[C@H]2S1(=O)=O [Example 1, 5-chloro-N-((4aR,11bR)-2-imino-3,11b-dimethyl-4,4-dioxido-2,3,4a,5,6,11b-hexahydro-1H-benzo[2,3]oxepino[4,5-e][1,2,4]thiadiazin-10-yl)picolinamide]",72,65
"Cc1cnc(C(=O)Nc2ccc3c(c2)[C@@]2(C)NC(=N)N(C)S(=O)(=O)[C@@H]2CCC3)cn1 [Example 40, N-((4aR,11bR)-2-imino-3,11b-dimethyl-4,4-dioxido-1,2,3,4a,5,6,7,11b-octahydrobenzo[6,7]cyclohepta[1,2-e][1,2,4]thiadiazin-10-yl)-5-methylpyrazine-2-carboxamide]",1390,2710
"COc1cnc2c(Nc3ccc4c(c3)[C@@]3(C)NC(=N)N(C)S(=O)(=O)[C@H]3CCC4)ccnc2n1 [Example 45, (4aS,11bR)-2-imino-10-((3-methoxypyrido[2,3-b]pyrazin-8-yl)amino)-3,11b-dimethyl-1,2,3,4a,5,6,7,11b-octahydrobenzo[6,7]cyclohepta[1,2-e][1,2,4]-thiadiazine 4,4-dioxide]",547,2440
"COc1cnc2c(Nc3ccc4c(c3)[C@@]3(C)NC(=N)N(C)S(=O)(=O)[C@H]3CCO4)nccc2n1 [Example 41, (4aS,11bR)-2-imino-10-((2-methoxypyrido[3,4-b]pyrazin-5-yl)amino)-3,11b-dimethyl-2,3,4a,5,6,11b-hexahydro-1H-benzo[2,3]oxepino[4,5-e][1,2,4]-thiadiazine 4,4-dioxide]",60,135
CN1C(=N)N[C@]2(C)c3cc(NC(=O)c4ncc(F)cc4F)ccc3OCC[C@@H]2S1(=O)=O [Example 15],10,6
"CN1C(=N)N[C@]2(C)c3cc(NC(=O)c4ccc(F)cn4)ccc3OCC[C@H]2S1(=O)=O [Example 7, 5-fluoro-N-((4aR,11bR)-2-imino-3,11b-dimethyl-4,4-dioxido-2,3,4a,5,6,11b-hexahydro-1H-benzo[2,3]oxepino[4,5-e][1,2,4]thiadiazin-10-yl)picolinamide]",108,159
"CN1C(=N)N[C@]2(C)c3cc(NC(=O)c4ccccn4)ccc3OCC[C@H]2S1(=O)=O [Example 2, N-((4aR,11bR)-2-imino-3,11b-dimethyl-4,4-dioxido-2,3,4a,5,6,11b-hexahydro-1H-benzo[2,3]oxepino[4,5-e][1,2,4]thiadiazin-10-yl)picolinamide]",508,279
"COc1cnc2c(Nc3ccc4c(c3)[C@@]3(C)NC(=N)N(C)S(=O)(=O)[C@H]3CCC4)nccc2c1 [Example 46, (4aS,11bR)-2-imino-10-((3-methoxy-1,7-naphthyridin-8-yl)amino)-3,11b-dimethyl-1,2,3,4a,5,6,7,11b-octahydrobenzo[6,7]cyclohepta[1,2-e][1,2,4]-thiadiazine 4,4-dioxide]",108,251
"COc1cnc(C(=O)Nc2ccc3c(c2)[C@@]2(C)NC(=N)N(C)S(=O)(=O)[C@@H]2CCO3)cn1 [Example 9, N-((4aR,11bR)-2-imino-3,11b-dimethyl-4,4-dioxido-2,3,4a,5,6,11b-hexahydro-1H-benzo[2,3]oxepino[4,5-e][1,2,4]thiadiazin-10-yl)-5-methoxypyrazine-2-carboxamide]",591,5610

# Source: patent publication US10238743B2 (Merck Sharp & Dohme Corp., priority 2014, dated 2019)
